# According to publication PMC10952195, “A single coiled‐coil domain mutation in hIKCa channel subunits disrupts preferential formation of heteromeric hSK1:hIKCa channels” (The European Journal of Neuroscience, 2023):
# “Also recorded” adds a separate entry of the source. Where two headings read alike, the source gives them in different places. Ends that are not written are not given here.
# Key:
# [1] = target: T1, heteromeric hSK1:hIKCa channel (Homo sapiens, UniProt O15554+Q92952); experiment: Outside-out patch current inhibition, heteromeric wildtype hSK1:hIKCa expressed in tsA201 cells; format: cell-based; conditions: for extent of inhibition of heteromeric hSK1:hIKCa current: concentration-inhibition relationship
# T1 construct: expressed in transfected cells; host or cells: tsA201 cells
# Procedure: (§1) TsA201 cells were maintained in culture at 37°C and 5% CO2, being grown in culture flasks with Dulbecco's Modified Eagle Medium (DMEM) supplemented with foetal bovine serum (10%) and penicillin and streptomycin (1%). Cells were passaged at ~80% confluence. The cDNA of KCa channel subunits and one encoding expression of enhanced green fluorescent protein (eGFP) (using pcDNA3.1 or equivalent vectors) were transfected into tsA201 cells using polyethylenimine (PEI) (Merck/Sigma, UK) at a concentration of 0.2 mg/mL (Higham et al., [2019]). Cells were used 48 h after transfection. All mutations were carried out using QuikChange II XL (Stratagene).
# (§2) Outside‐out patches were excised from eGFP‐positive cells, pulled from thick‐walled (1.5 mm OD × 0.86 mm ID) borosilicate glass capillaries (Harvard Apparatus, UK), fire‐polished and filled with internal solution containing in mM: 97 K aspartate, 20 KCl, 1.5 Na2ATP, 10 EGTA, 9.65 CaCl2 (1 μM free Ca^2+), 10 HEPES Na, 2.5 MgCl2 (pH 7.4 and osmolarity between 280 and 310 mOsm). Cells were bathed in, and patches excised into, an external solution containing in mM: 97 K Aspartate, 30 KCl, 10 HEPES Na^+, 6.19 CaCl2 (1 μM free Ca^2+), 1.44 MgCl2 (pH 7.4, 280–310 mOsm). Free Ca^2+ concentrations were calculated using REACT (University of Strathclyde). […] Current was measured using an Axopatch 200A amplifier, low‐pass filtered (cut off 1 kHz, Bessel, Frequency Devices) and acquired at 10 kHz (Pulse, HEKA). All recordings were made at room temperature. Apamin (Sigma‐Aldrich, UK), 6,12,19,20,25,26‐hexahydro‐5,27:13,18:21,24‐trietheno‐11,7‐metheno‐7H‐dibenzo [b,n] […] UCL1684 was dissolved at a stock concentration of 100 μM in DMSO, and aliquots were stored at −20°C. Finally, apamin was dissolved in distilled water at a stock concentration of 100 μM, and aliquots were stored at −20°C. All compounds were defrosted on the day of recording, with aliquots only thawed once, and desired concentrations were prepared by dilution in external solution.
# (§3) Biphasic concentration–inhibition relationships were fitted using the following equation: I/Icontrol=Amin+Afrac−Amin/1+10^LogIC50,a−X×nH,a +Amax−Amin/1+10^LogIC50,b−X×nH,b where A frac is current amplitude at the maximum of the high‐sensitivity component I frac /I cont , IC 50,a is the IC50 of the high‐sensitivity component, n H,a is the Hill coefficient of the high‐sensitivity component, IC 50,b is the IC50 of the low‐sensitivity component, and n H,b is the Hill coefficient of the low‐sensitivity component. […] Statistical significance was determined using appropriate tests that are stated in the figure legend.
# [2] = target: hSK1:hIKCa[H389E] channels (Homo sapiens, UniProt O15554+Q92952, H389E); experiment: Outside-out patch current inhibition, cells co-expressing hSK1 and hIKCa[H389E]; format: cell-based
# Procedure: as §1, §2, §3
# [3] = system: hSK1:hIKCa[H389E] channels; experiment: as above; format: cell-based, human; conditions: biphasic fit, hSK1:hIKCa[H389E]-mediated current
# Procedure: as §1, §2, §3
# [4] = system: hSK1 channel; experiment: Outside-out patch current inhibition, homomeric hSK1; format: cell-based, human
# Procedure: as §1
# (§4) Outside‐out patches were excised from eGFP‐positive cells, pulled from thick‐walled (1.5 mm OD × 0.86 mm ID) borosilicate glass capillaries (Harvard Apparatus, UK), fire‐polished and filled with internal solution containing in mM: 97 K aspartate, 20 KCl, 1.5 Na2ATP, 10 EGTA, 9.65 CaCl2 (1 μM free Ca^2+), 10 HEPES Na, 2.5 MgCl2 (pH 7.4 and osmolarity between 280 and 310 mOsm). Cells were bathed in, and patches excised into, an external solution containing in mM: 97 K Aspartate, 30 KCl, 10 HEPES Na^+, 6.19 CaCl2 (1 μM free Ca^2+), 1.44 MgCl2 (pH 7.4, 280–310 mOsm). Free Ca^2+ concentrations were calculated using REACT (University of Strathclyde). […] Current was measured using an Axopatch 200A amplifier, low‐pass filtered (cut off 1 kHz, Bessel, Frequency Devices) and acquired at 10 kHz (Pulse, HEKA). […]
# as §3
# [5] = system: hSK1[S348T + A371V] channel; experiment: Outside-out patch current inhibition, homomeric pore mutant hSK1[S348T + A371V]; format: cell-based, human
# Procedure: as §1
# as §4, with “Cells were bathed in, and patches excised into, an external solution containing in mM: 97 K Aspartate, 30 KCl, 10 HEPES Na^+, 6.19 CaCl2 (1 μM free Ca^2+), 1.44 MgCl2 (pH 7.4, 280–310 mOsm).” left out
# [6] = target: hSK1[S348T + A371V]:hIKCa heteromeric channel (Homo sapiens, UniProt O15554+Q92952, A355V/S330T); experiment: Outside-out patch current inhibition, heteromeric hSK1[S348T + A371V]:hIKCa; format: cell-based
# Procedure: as §1
# as §4, with “Cells were bathed in, and patches excised into, an external solution containing in mM: 97 K Aspartate, 30 KCl, 10 HEPES Na^+, 6.19 CaCl2 (1 μM free Ca^2+), 1.44 MgCl2 (pH 7.4, 280–310 mOsm).” left out
# [7] = target: T1, heteromeric hSK1:hIKCa channel; conditions: ref Higham et al., 2019, Church et al.; cited from earlier work
# [8] = system: slow AHP of hippocampal neurons; conditions: ref King et al., 2015, Shah & Haylett, 2000, Church et al., 2019, Higham et al.; cited from earlier work
# [9] = target: T2, hIKCa (WT) channel (Homo sapiens, UniProt O15554); experiment: Outside-out patch current inhibition, homomeric wildtype hIKCa expressed in tsA201 cells; format: cell-based
# T2 construct: expressed in transfected cells; host or cells: tsA201 cells
# Procedure: as §1
# as §4, with “Cells were bathed in, and patches excised into, an external solution containing in mM: 97 K Aspartate, 30 KCl, 10 HEPES Na^+, 6.19 CaCl2 (1 μM free Ca^2+), 1.44 MgCl2 (pH 7.4, 280–310 mOsm).” left out
# [10] = target: T3, hIKCa[H389E] channel (Homo sapiens, UniProt O15554, H389E); experiment: Outside-out patch current inhibition, homomeric hIKCa[H389E]; format: cell-based; conditions: TRAM-34 10 μM
# T3 construct: expressed in transfected cells; host or cells: tsA201 cells
# Procedure: as §1
# as §4, with “Cells were bathed in, and patches excised into, an external solution containing in mM: 97 K Aspartate, 30 KCl, 10 HEPES Na^+, 6.19 CaCl2 (1 μM free Ca^2+), 1.44 MgCl2 (pH 7.4, 280–310 mOsm).” left out
# [11] = system: hSK1 channel; set-up: method as in Higham et al., 2019; conditions: ref Higham et al., 2019; cited from earlier work
# [12] = system: hSK1 channel; experiment: Ca2+ activation of ramp currents, inside-out macropatches, homomeric hSK1; format: cell-based, human
# Procedure: as §1
# (§5) Sensitivity of expressed channels to Ca^2+ was assessed using inside‐out macropatches excised from eGFP‐positive cells, using electrodes of resistance 1–3 MΩ. A range of free Ca^2+ concentrations was used, from 30 nM to 3 μM in half log10 increments. We used external solution to bath inside‐out patches, with the free Ca^2+ concentration calculated to maintain free Mg^2+ at 1 mM. Solutions were designed using REACT, with pH adjusted to 7.4 and osmolarity between 280 and 310 mOsm.
# [13] = target: T4, hIKCa channel (Homo sapiens, UniProt O15554); experiment: Ca2+ activation of ramp currents, inside-out macropatches, homomeric hIKCa; format: cell-based
# T4 construct: expressed in transfected cells; host or cells: tsA201 cells
# Procedure: as §1, §5
# [14] = target: T1, heteromeric hSK1:hIKCa channel; experiment: Ca2+ activation of ramp currents, inside-out macropatches, heteromeric hSK1:hIKCa; format: cell-based
# Procedure: as §1, §5
# [15] = system: SK channels native to CA1 hippocampal neurons; set-up: method as in Hirschberg et al., 1999; conditions: ref Hirschberg et al., 1999; read-out: EC50 for activation of SK channels native to CA1 hippocampal neurons; cited from earlier work
# [16] = concentration-inhibition relationship
# T1 sequence (O15554 whole entry): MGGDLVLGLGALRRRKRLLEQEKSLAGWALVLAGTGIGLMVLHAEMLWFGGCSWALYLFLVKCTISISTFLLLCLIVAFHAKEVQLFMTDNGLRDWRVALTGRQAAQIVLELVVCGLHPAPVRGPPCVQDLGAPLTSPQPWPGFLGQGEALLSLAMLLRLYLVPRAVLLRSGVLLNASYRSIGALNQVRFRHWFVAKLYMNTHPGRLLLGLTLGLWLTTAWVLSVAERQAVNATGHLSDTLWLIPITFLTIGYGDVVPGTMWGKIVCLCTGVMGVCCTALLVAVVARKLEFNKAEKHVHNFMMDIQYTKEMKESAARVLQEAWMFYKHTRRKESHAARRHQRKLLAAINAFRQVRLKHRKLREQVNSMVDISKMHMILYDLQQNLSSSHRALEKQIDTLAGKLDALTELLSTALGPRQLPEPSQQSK
# T1 sequence (Q92952 other isoform, or with tags, fused parts or gaps): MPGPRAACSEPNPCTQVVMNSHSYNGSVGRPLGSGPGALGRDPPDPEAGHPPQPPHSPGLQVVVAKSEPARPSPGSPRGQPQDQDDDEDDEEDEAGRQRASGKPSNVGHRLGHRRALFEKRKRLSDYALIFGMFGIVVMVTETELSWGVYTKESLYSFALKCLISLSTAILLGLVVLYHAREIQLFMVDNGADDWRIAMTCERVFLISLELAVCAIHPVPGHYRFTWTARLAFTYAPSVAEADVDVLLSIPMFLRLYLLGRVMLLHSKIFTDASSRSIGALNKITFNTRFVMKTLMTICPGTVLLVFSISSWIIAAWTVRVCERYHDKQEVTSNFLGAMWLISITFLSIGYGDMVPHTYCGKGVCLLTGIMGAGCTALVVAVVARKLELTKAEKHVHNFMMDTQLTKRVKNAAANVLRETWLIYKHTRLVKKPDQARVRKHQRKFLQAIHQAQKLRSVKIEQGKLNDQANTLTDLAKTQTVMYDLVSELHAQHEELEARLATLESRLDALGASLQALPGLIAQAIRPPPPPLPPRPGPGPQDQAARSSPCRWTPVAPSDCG
# T4 sequence (O15554 whole entry): as the sequence (O15554 whole entry) above
# Chain of hSK1:hIKCa[H389E] channels (Homo sapiens, UniProt O15554+Q92952, H389E) (O15554 whole entry H389E): as the sequence (O15554 whole entry) above, with H389E counted along it
# Chain of hSK1:hIKCa[H389E] channels (Homo sapiens, UniProt O15554+Q92952, H389E) (Q92952 whole entry): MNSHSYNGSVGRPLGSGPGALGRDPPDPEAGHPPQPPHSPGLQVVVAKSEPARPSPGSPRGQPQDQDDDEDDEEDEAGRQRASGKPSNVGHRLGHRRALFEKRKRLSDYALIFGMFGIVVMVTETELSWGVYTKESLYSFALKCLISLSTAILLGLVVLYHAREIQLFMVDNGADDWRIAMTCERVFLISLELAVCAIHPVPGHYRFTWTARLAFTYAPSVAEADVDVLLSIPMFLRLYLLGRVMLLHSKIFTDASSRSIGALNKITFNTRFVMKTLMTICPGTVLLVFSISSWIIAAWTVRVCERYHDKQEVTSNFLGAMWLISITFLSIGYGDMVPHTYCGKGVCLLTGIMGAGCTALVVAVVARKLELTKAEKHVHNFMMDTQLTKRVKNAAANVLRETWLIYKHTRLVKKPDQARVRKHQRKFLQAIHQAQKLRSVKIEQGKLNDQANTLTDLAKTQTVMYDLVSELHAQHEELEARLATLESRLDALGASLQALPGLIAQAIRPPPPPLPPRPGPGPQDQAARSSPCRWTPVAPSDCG
# T2 sequence (O15554 whole entry): as the sequence (O15554 whole entry) above
# Chain of hSK1[S348T + A371V]:hIKCa heteromeric channel (O15554 whole entry): as above
# Chain of hSK1[S348T + A371V]:hIKCa heteromeric channel (Q92952 whole entry S330T/A355V): as the sequence (Q92952 whole entry) above, with S330T, A355V counted along it
# T3 sequence (O15554 whole entry H389E): as the sequence (O15554 whole entry) above, with H389E counted along it
compound,measurement,setting,value
"[Br-].[Br-].c1cc2cc(c1)C[n+]1ccc(c3ccccc31)NCc1ccc(cc1)CNc1cc[n+](c3ccccc13)C2 [UCL1684, 6,12,19,20,25,26‐hexahydro‐5,27:13,18:21,24‐trietheno‐11,7‐metheno‐7H‐dibenzo [b,n] [1,5,12,16]tetraazacyclotricosine‐5,13‐diium dibromide]",extent of inhibition of heteromeric hSK1:hIKCa current,[1],sub‐maximally inhibited
same,IC50,"[1]; outside-out patches, tsA201 cells, 1 μM free Ca2+, sub-maximal inhibition, read-out: IC50 for inhibition of heteromeric hSK1:hIKCa (WT) current",236 ± 82 nM
same,maximal inhibition of hSK1:hIKCa[H389E]-mediated current,[2]; two component concentration-inhibition curve,50.9 ± 12.5%
same,nH(a) of the high-sensitivity component,[3],0.910 ± 0.02
same,nH(b) of the low-sensitivity component,[3],0.930 ± 0.1
same,IC50,[3]; read-out: IC50(a) of the high-sensitivity component,0.511 ± 0.0002 nM
same,IC50,[3]; read-out: IC50(b) of the low-sensitivity component,301 ± 84.6 nM
same,extent of inhibition of homomeric hSK1-mediated current,[4]; [16],maximally inhibited
same,difference in sensitivity between homomeric hSK1-mediated and heteromeric hSK1:hIKCa-mediated current,[4]; hSK1 versus hSK1:hIKCa,< 200 fold
same,IC50,"[4]; outside-out patches, tsA201 cells, maximal inhibition, read-out: IC50 for inhibition of homomeric hSK1-mediated current",0.783 ± 0.38 nM
"apamin: SK channel inhibitor; negative allosteric inhibitor for SK1–3 channels (CNCKAPETALCARRCQQH; not fully specified (C-terminus, bridges); cysteine pairing not given here; UniProt P01500 28-45, looked up)",effect on current from cells co-expressing wildtype hSK1 and hIKCa,[1]; apamin 100 nM,had no effect
same,extent of inhibition of hSK1[S348T + A371V] current,[5]; apamin 100 nM,completely inhibited
same,sensitivity of hSK1[S348T + A371V]:hIKCa current,[6]; apamin 100 nM,insensitive
same,"reduction of current amplitude, cells co-expressing hSK1 and hIKCa[H389E]",[2]; apamin 100 nM,17.3 ± 1.8%
same,sensitivity of hSK1:hIKCa channel current,[7],insensitive
same,sensitivity of the slow AHP,[8],insensitive
"Clc1ccccc1C(c1ccccc1)(c1ccccc1)n1cccn1 [TRAM‐34, 1‐[(2‐chlorophenyl)diphenylmethyl]‐1H‐pyrazole]",extent of inhibition of homomeric hIKCa-mediated current,[9]; [16],fully inhibited
same,inhibition at 10 µM,"[9]; tsA201, TRAM-34 10 μM, read-out: inhibition of hIKCa (WT)-mediated current",87 ± 2.6%
same,extent of inhibition of heteromeric hSK1:hIKCa current,[1],sub‐maximal inhibition
same,extent of block of hSK1[S348T + A371V]-mediated current,[5]; TRAM-34 10 μM,fully blocked
same,extent of inhibition of hSK1[S348T + A371V]:hIKCa current,[6]; TRAM-34 10 μM,fully sensitive
same,block of hIKCa[H389E]-mediated current,[10],83.7 ± 2.0%
same,extent of inhibition of hSK1:hIKCa[H389E] current,[2]; [16],only partially inhibited
same,sensitivity of hSK1:hIKCa channel current,[7],sensitive
same,effect on wildtype hSK1-mediated current,[11],insensitive; also recorded: does not affect
same,sensitivity of the slow AHP,[8],sensitive
[Ca+2] [Ca^2+],activity of homomeric hSK1 channels at 100 nM Ca2+,[12]; 100 nM Ca2+,inactive
same,nH for activation of homomeric hSK1-mediated current,[12]; inside-out patches,5.26 ± 0.82
same,EC50,"[12]; inside-out patches, tsA201 cells, read-out: EC50 for activation of homomeric hSK1-mediated current",531 ± 78 nM
same,activity of homomeric hIKCa channels at 100 nM Ca2+,[13]; 100 nM Ca2+,10%
same,nH for activation of homomeric hIKCa-mediated ramp currents,[13]; inside-out patches,4.10 ± 0.57
same,EC50,"[13]; inside-out patches, tsA201 cells, read-out: EC50 for activation of homomeric hIKCa-mediated ramp currents",409 ± 15.3 nM
same,activity of heteromeric hSK1:hIKCa channels at 100 nM Ca2+,[14]; 100 nM Ca2+,inactive
same,nH for activation of heteromeric hSK1:hIKCa-mediated ramp currents,[14]; inside-out patches,3.93 ± 0.29
same,EC50,"[14]; inside-out patches, tsA201 cells, read-out: EC50 for activation of heteromeric hSK1:hIKCa-mediated ramp currents",613 ± 27.6 nM
same,EC50,[15],560 nM
charybdotoxin,sensitivity of hSK1:hIKCa channel current,[7],sensitive
same,sensitivity of the slow AHP,[8],sensitive
